33 molecules from patent publication US9879008B2, “2,3,4,6-tetra-substituted benzene-1,5-diamine derivatives, preparation method therefor and medicinal use thereof” (SHANGHAI HAIYAN PHARMACEUTICAL TECHNOLOGY CO., LTD., priority 2014, dated 2018) can be followed below.

For one test, the system named is H1975 cell. Put plainly: MTT cytostatic activity, H1975 cell.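 Also: cells in 96-well plates exposed to compound for 72 h, then given MTT for a further 4 h at 37 °C under 5% CO2.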 The test is classed as cell-based. The note with it: Homo sapiens, NCI-H1975, 72 h, read-out: H1975 cell (IC50/nM).
The test system of the next test is NIH3T3 cell. Put plainly: MTT cytotoxicity against NIH3T3 cells. The test is classed as cell-based. The note with it: Mus musculus, read-out: MTT assay against NIH3T3 cell (IC50/nM). For orientation: Formazan colour is commonly taken as a measure of viable cells.
Another test deals with T1, wild-type EGFR kinase (Homo sapiens, UniProt P00533).
T1 construct: purchased Invitrogen PV3872
The test can be described thus: z-lyte inhibition test against wild-type EGFR kinase.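 Also: reaction volume 10 µL holding 0.8 ng/µL enzyme and 2 µM Tyr04 substrate, with DMSO at 2% once compounds are present.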 The test is classed as biochemical. The note with it: 10 μM ATP, read-out: EGFR WT (IC50/nM).

The test system of the next test is A431 cells. The test can be described thus: ELISA assay for cell activity, EGF-treated A431 cells.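 Also: Serum-starved A431 cells, ELISA on lysates read as OD450 minus OD570, inhibition scaled between EGF-stimulated wells (0%) and unstimulated cell control (100%), DMSO 0.5% final.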 The note with it: Homo sapiens, A-431, compound 1 h, then EGF 45 min. The test is classed as cell-based. (In general: In an ELISA, binding on a coated surface is turned into a signal by an enzyme label.)
Another test concerns H1975 cells. Put plainly: ELISA assay for cell activity of EGFR T790M inhibitor, H1975 cells. The note with it: for Selective inhibitory activities against cell [IC50(A431 cell)/IC50(H1975 cell)]: ELISA, ratio of cell IC50 values; for IC50: Homo sapiens, NCI-H1975, 1 h, read-out: H1975 cell (IC50/nM).
Setting [1] is: NIH3T3, cytotoxicity, MTT, 72 h.

Like-named read-outs stand apart in the source and are kept apart here. A value given as a limit tells only on which side of the number the result lay.

T1 sequence (P00533 25-1210): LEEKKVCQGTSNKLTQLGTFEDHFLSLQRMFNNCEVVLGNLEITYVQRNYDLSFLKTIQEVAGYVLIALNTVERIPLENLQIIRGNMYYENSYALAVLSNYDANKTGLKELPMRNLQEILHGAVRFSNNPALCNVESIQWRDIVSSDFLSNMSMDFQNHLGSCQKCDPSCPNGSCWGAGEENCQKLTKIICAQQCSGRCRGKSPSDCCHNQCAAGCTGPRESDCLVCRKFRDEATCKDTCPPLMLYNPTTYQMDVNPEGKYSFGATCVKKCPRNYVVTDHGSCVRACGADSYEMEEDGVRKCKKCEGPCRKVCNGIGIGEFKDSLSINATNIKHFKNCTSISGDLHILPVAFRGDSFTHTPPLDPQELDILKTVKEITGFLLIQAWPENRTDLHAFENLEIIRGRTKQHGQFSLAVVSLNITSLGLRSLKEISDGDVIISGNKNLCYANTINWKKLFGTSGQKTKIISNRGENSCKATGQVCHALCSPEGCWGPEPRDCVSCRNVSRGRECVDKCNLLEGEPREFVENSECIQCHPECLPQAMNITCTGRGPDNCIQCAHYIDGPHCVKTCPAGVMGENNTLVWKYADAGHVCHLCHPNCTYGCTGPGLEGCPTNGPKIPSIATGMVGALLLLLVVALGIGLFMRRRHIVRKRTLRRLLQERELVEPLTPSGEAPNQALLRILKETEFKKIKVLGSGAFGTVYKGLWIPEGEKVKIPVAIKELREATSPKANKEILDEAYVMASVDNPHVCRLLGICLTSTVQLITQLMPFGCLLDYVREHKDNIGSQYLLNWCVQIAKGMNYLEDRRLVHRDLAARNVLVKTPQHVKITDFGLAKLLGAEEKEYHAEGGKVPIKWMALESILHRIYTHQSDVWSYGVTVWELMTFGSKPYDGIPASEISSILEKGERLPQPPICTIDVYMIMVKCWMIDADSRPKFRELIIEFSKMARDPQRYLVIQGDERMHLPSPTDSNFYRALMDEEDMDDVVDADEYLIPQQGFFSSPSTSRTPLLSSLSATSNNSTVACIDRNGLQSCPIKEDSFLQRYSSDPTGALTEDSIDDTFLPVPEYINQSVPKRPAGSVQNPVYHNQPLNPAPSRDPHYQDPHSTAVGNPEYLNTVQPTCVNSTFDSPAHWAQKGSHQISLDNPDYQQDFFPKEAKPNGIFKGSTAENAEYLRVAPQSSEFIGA

With `CN(C)C/C=C/C(=O)Nc1cc2c(Nc3ccc(F)c(Cl)c3)ncnc2cc1O[C@H]1CCOC1` [BIBW2992, Afatinib, reference compound], the IC50 was 88 nM in the test on H1975 cell and 2750 nM in the test on NIH3T3 cell (NIH3T3, 72 h).

Turning to `C=CC(=O)Nc1cc(Nc2nccc(OC3CCN(C(=O)OC(C)(C)C)CC3)n2)c(OC)cc1N1CCC(N(C)C)CC1` [Compound J-2, tert-butyl 4-(2-(5-acrylamido-4-(4-(dimethylamino)piperidine-1-yl)-2-methoxyphenylamino)pyrimidine-4-oxy)piperidine-1-formate], the IC50 on wild-type EGFR kinase was found to be 154 nM.

For `C=CC(=O)Nc1cc(Nc2ncc(Cl)c(OC3CCN(S(C)(=O)=O)CC3)n2)c(OC)cc1N(C)CCN(C)C` [Compound J-3, N-(5-(5-chloro-4-(1-(methylsulfonyl)piperidine-4-oxy)pyrimidine-2-amino)-2-((2-(dimethylamino)ethyl)(methyl)amino)-4-methoxylphenyl) acrylamide], the IC50 at wild-type EGFR kinase is 38 nM; in the test with NIH3T3 cell (setting [1]), > 10000 nM.

For `C=CC(=O)Nc1cc(Nc2nccc(OC3CCN(S(C)(=O)=O)CC3)n2)c(OC)cc1N(C)CCN(C)C` [Compound J-4, N-(2-((2-(dimethylamino)ethyl)(methyl)amino)-4-methoxy-5-(4-(1-(methylsulfonyl)piperidine-4-oxy)pyrimidine-2-amino)phenyl) acrylamide], the IC50 on wild-type EGFR kinase was 52 nM; with NIH3T3 cell (setting [1]), > 10000 nM.

Turning to `C=CC(=O)Nc1cc(Nc2nccc(OC3CCN(S(C)(=O)=O)CC3)n2)c(OC)cc1N1CCC(N(C)C)CC1` [Compound J-5, N-(2-(4-(dimethylamino)piperidine-1-yl)-4-methoxy-5-(4-(1-(methylsulfonyl)piperidine-4-oxy)pyrimidine-2-amino)phenyl)acrylamide], the figures for the IC50 at wild-type EGFR kinase and with NIH3T3 cell (setting [1]) were 51 nM and > 10000 nM, respectively.

Regarding `C=CC(=O)Nc1cc(Nc2nccc(OC3CN(C(=O)c4ccccc4)C3)n2)c(OC)cc1N(C)CCN(C)C` [Compound J-6], in the test with NIH3T3 cell (setting [1]), the IC50 was > 10000 nM.

As for `C=CC(=O)Nc1cc(Nc2nccc(OC3CN(C(=O)c4ccccc4)C3)n2)c(OC)cc1N1CCC(N(C)C)CC1` [Compound J-8, N-(5-(4-(1-benzoylaza-3-oxy)pyrimidine-2-amino)-2-(4-(dimethylamino)piperidine-1-yl)-4-methoxylphenyl)acrylamide], the IC50 in the test on NIH3T3 cell (setting [1]) was > 10000 nM.

As to `C=CC(=O)Nc1cc(Nc2nccc(OC3CN(S(=O)(=O)c4ccccc4)C3)n2)c(OC)cc1N1CCC(N(C)C)CC1` [Compound J-9, N-(2-(4-(dimethylamino)piperidine-1-yl)-4-methoxy-5-(4-(1-(phenylsulfonyl)azetidine-3-oxy)pyrimidino)phenyl)acrylamide], the IC50 on wild-type EGFR kinase is 72 nM; with NIH3T3 cell (setting [1]), > 10000 nM.

Regarding `C=CC(=O)Nc1cc(Nc2nccc(OC3CN(c4cnc5ccccc5c4)C3)n2)c(OC)cc1N(C)CCN(C)C` [Compound J-14, N-(2-((2-(dimethylamino)ethyl)(methyl)amino)-4-methoxy-5-(4-(1-(quinoline-3-yl)azetidine-3-oxy)pyrimidine-2-amino)phenyl)acrylamide], in the test with NIH3T3 cell (setting [1]), the IC50 is > 10000 nM.

On to `C=CC(=O)Nc1cc(Nc2nccc(OC3CN(c4cnc5c(cnn5C)c4)C3)n2)c(OC)cc1N(C)CCN(C)C` [Compound J-15], for which the IC50 is > 10000 nM in the test on NIH3T3 cell (setting [1]), 835 nM in the test on A431 cells and 75 nM with H1975 cells. For the same molecule, in the test on H1975 cells, the “Selective inhibitory activities against cell [IC50(A431 cell)/IC50(H1975 cell)]” value (“Selective inhibitory activities” below) came to 11.1.

Take `C=CC(=O)Nc1cc(Nc2nccc(OC3CN(c4cnc5c(ccn5C)c4)C3)n2)c(OC)cc1N(C)CCN(C)C` [Compound J-16]: the IC50 in the test with NIH3T3 cell (setting [1]) was > 10000 nM.

As to `C=CC(=O)Nc1cc(Nc2nccc(OC3CN(c4cnc5c(cnn5C)c4)C3)n2)c(OC)cc1N1CCC(N(C)C)CC1` [Compound J-19], the IC50 in the test on NIH3T3 cell (setting [1]) is > 10000 nM.

In the case of `C=CC(=O)Nc1cc(Nc2nccc(OC3CN(C(=O)c4ccc(F)cc4)C3)n2)c(OC)cc1N(C)CCN(C)C` [Compound J-21], the IC50 in the test on NIH3T3 cell (setting [1]) was > 10000 nM.

In the case of `C=CC(=O)Nc1cc(Nc2nccc(OC3CN(C(=O)c4ccc(C)cc4)C3)n2)c(OC)cc1N(C)CCN(C)C` [Compound J-22], the IC50 with NIH3T3 cell (setting [1]) was > 10000 nM.

Regarding `C=CC(=O)Nc1cc(Nc2nccc(OC3CN(C(C)=O)C3)n2)c(OC)cc1N(C)CCN(C)C` [Compound J-23], the IC50 on wild-type EGFR kinase was 32 nM; in the test on NIH3T3 cell (setting [1]) it was > 10000 nM.

With `C=CC(=O)Nc1cc(Nc2nccc(OC3CN(C(=O)c4ccc(C)cc4)C3)n2)c(OC)cc1N1CCC(N(C)C)CC1` [Compound J-24], the IC50 on wild-type EGFR kinase amounted to 119 nM; in the test with NIH3T3 cell (setting [1]), 6000 nM.

On to `C=CC(=O)Nc1cc(Nc2ncc(C#N)c(OC3CN(S(C)(=O)=O)C3)n2)c(OC)cc1N1CCC(N(C)C)CC1` [Compound J-32], for which the values for the IC50 on wild-type EGFR kinase and in the test with NIH3T3 cell (setting [1]) were 11 nM and > 10000 nM, respectively.

As for `C=CC(=O)Nc1cc(Nc2ncc(Cl)c(OCC3CN(C(C)=O)C3)n2)c(OC)cc1N1CCC(N(C)C)CC1` [Compound J-33], the IC50 on wild-type EGFR kinase was 597 nM; in the test on NIH3T3 cell (setting [1]), > 10000 nM.

As for `C=CC(=O)Nc1cc(Nc2ncc(Cl)c(OCC3CN(S(C)(=O)=O)C3)n2)c(OC)cc1N1CCC(N(C)C)CC1` [Compound J-34], the IC50 is 113 nM at wild-type EGFR kinase and > 10000 nM in the test with NIH3T3 cell (setting [1]).

`C=CC(=O)Nc1cc(Nc2ncc(Cl)c(O[C@H]3CCCN(S(C)(=O)=O)C3)n2)c(OC)cc1N1CCC(N(C)C)CC1` [Compound J-42]: in the test with NIH3T3 cell (setting [1]), the IC50 was > 10000 nM.

Regarding `C=CC(=O)Nc1cc(Nc2ncc(F)c(O[C@@H]3CCN(C(C)=O)C3)n2)c(OC)cc1N1CCC(N(C)C)CC1` [Compound J-49], on wild-type EGFR kinase, the IC50 came out at 259 nM.

As to `C=CC(=O)Nc1cc(Nc2ncc(F)c(O[C@@H]3CCN(S(C)(=O)=O)C3)n2)c(OC)cc1N1CCC(N(C)C)CC1` [Compound J-51], the IC50 was 26 nM at wild-type EGFR kinase, > 10000 nM in the test on NIH3T3 cell (setting [1]), 937 nM in the test on A431 cells and 64 nM in the test on H1975 cells. In addition, the “Selective inhibitory activities” value with H1975 cells is given as 15.

On to `C=CC(=O)Nc1cc(Nc2ncc(F)c(O[C@H]3CCN(S(C)(=O)=O)C3)n2)c(OC)cc1N1CCC(N(C)C)CC1` [Compound J-52], for which the IC50 on wild-type EGFR kinase is 47 nM; in the test with NIH3T3 cell (setting [1]), > 10000 nM; with A431 cells, 700 nM; in the test on H1975 cells, 47 nM. Further, in the test on H1975 cells, the “Selective inhibitory activities” value worked out at 15.

Regarding `C=CC(=O)Nc1cc(Nc2nccc(OC3CN(CCF)C3)n2)c(OC)cc1N(C)CCN(C)C` [Compound J-53, N-(2-((2-(dimethylamino)ethyl)(methyl)amino)-5-(4-(1-(2-fluroethyl)azetidine-3-oxy)pyrimidine-2-amino)-4-methoxyphenyl) acrylamide], the results for the IC50 with NIH3T3 cell (setting [1]), in the test on A431 cells and in the test on H1975 cells were > 10000 nM, 225 nM and 30 nM, respectively. For the same molecule, the “Selective inhibitory activities” value with H1975 cells was 7.5.

With `C=CC(=O)Nc1cc(Nc2ncc(Cl)c(NC3CN(C(C)=O)C3)n2)c(OC)cc1N1CCC(N(C)C)CC1` [Compound J-61], the IC50 on wild-type EGFR kinase was 181 nM; with NIH3T3 cell (setting [1]), > 10000 nM.

With `C=CC(=O)Nc1cc(Nc2ncc(F)c(NC3CN(S(C)(=O)=O)C3)n2)c(OC)cc1N1CCC(N(C)C)CC1` [Compound J-62], the IC50 on wild-type EGFR kinase is 6 nM; in the test with NIH3T3 cell (setting [1]), > 10000 nM.

For the molecule `C=CC(=O)Nc1cc(Nc2ncc(Cl)c(N[C@@H]3CCCN(CCF)C3)n2)c(OC)cc1N1CCC(N(C)C)CC1` [Compound J-67], at wild-type EGFR kinase, the IC50 worked out at 2 nM.

For `C=CC(=O)Nc1cc(Nc2ncc(Cl)c(N[C@H]3CCCN(CCF)C3)n2)c(OC)cc1N1CCC(N(C)C)CC1` [Compound J-68], the IC50 came to 41 nM at wild-type EGFR kinase, 7600 nM with NIH3T3 cell (setting [1]), 388 nM in the test with A431 cells and 48 nM in the test on H1975 cells. The “Selective inhibitory activities” value with H1975 cells is given as 8.1.

For `C=CC(=O)Nc1cc(Nc2ncc(Cl)c(NC3CCN(S(C)(=O)=O)CC3)n2)c(OC)cc1N1CCC(N(C)C)CC1` [Compound J-69], the IC50 on wild-type EGFR kinase was 105 nM; in the test on NIH3T3 cell (setting [1]), > 10000 nM.

Take `C=CC(=O)Nc1cc(Nc2ncc(Cl)c(N(C)C3CN(S(C)(=O)=O)C3)n2)c(OC)cc1N1CCC(N(C)C)CC1` [Compound J-73]: the IC50 is 24 nM at wild-type EGFR kinase, > 10000 nM with NIH3T3 cell (setting [1]), 494 nM in the test on A431 cells and 26 nM in the test with H1975 cells. In the test with H1975 cells, the “Selective inhibitory activities” value was 19.

Turning to `C=CC(=O)Nc1cc(Nc2ncc(Cl)c(NC3CC3)n2)c(OC)cc1N1CCC(N(C)C)CC1` [Compound J-74], the figures for the IC50 at wild-type EGFR kinase, in the test with A431 cells and with H1975 cells were 216 nM, 2030 nM and 264 nM, respectively. Besides, in the test with H1975 cells, the “Selective inhibitory activities” value was 7.7.

For the molecule `C=CC(=O)Nc1cc(Nc2ncc(Cl)c(OC3(C)CN(S(C)(=O)=O)C3)n2)c(OC)cc1N1CCC(N(C)C)CC1` [Compound J-75], the figures for the IC50 at wild-type EGFR kinase, in the test with A431 cells and with H1975 cells were 463 nM, > 10000 nM and 438 nM, respectively. Moreover, the “Selective inhibitory activities” value in the test on H1975 cells is >22.8.

As to `C=CC(=O)Nc1cc(Nc2ncc(Cl)c(OC3CN(S(C)(=O)=O)C3)n2)ccc1N1CCC(N(C)C)CC1` [Compound J-76], at wild-type EGFR kinase, the IC50 was 14 nM.
